Data set [1] concerns the target Type IV Phosphodiesterase (PDE IV). The data set is described as follows: Effect on enzymatic activity of type IV phosphodiesterase (PDE IV). The conditions noted are these: crude enzyme from cytoplasmic fraction of human monocyte-like cell strain U937; 3H-cAMP substrate, 30° C., 15 minutes; read-out: PDE IV Inhibitory Activity: IC50. In kind it is biochemical. As to the method: PDE IV inhibitory activity of the compounds of the present invention was examined. […] Adv.
Effect on Enzymatic Activity of Type IV Phosphodiesterase (PDE IV)
After a test compound was added, the reaction mixture was incubated at 30° C. for 15 minutes, and then added with the substrate.

For orientation: IC50 means the point on the concentration scale where inhibition reaches its midpoint. Consider `COc1ccc(Cn2cnc3c(OCc4cccnc4)ncnc32)cc1OC1CCCC1` [compound 2], for which the IC50 in data set [1] stood at 8.9 nM.

With `COc1ccc(Cn2c(C)nc3cnc(OCc4cccnc4)nc32)cc1OC1CCCC1` [compound 36], the IC50 in data set [1] is 2.6 nM. Still for that read-out and setting: the same measure for `COc1ccc(Cn2c(C)nc3cnc(NCc4cccnc4)nc32)cc1OC1CCCC1` [compound 37]: 1 nM. As usually defined, the melting point is the temperature, or range, at which the solid turns liquid. The molecule `COc1ccc(Cn2cnc3cnc(NCc4cccs4)nc32)cc1OC1CCCC1` [compound 41] showed a melting point of 141 to 142 °C. The IC50 in data set [1] is 0.47 nM.

On to `COc1ccc(Cn2cnc3cnc(OCCCc4ccncc4)nc32)cc1OC1CCOC1` (centres unmarked) [compound 55], for which the melting point lay in the range of 128 to 130 °C. Moreover, in data set [1], the IC50 was 4.5 nM. The corresponding values for `COc1ccc(Cn2c(C)nc3cnc(OCCCc4ccncc4)nc32)cc1OC1CCCC1` [compound 56] are 115 to 117 °C and 1.3 nM. For `COc1ccc(Cn2cnc3c(N)nc(OCCCc4ccncc4)nc32)cc1OC1CCCC1` [compound 66], in that order: 152 to 153 °C and 1.4 nM.

The molecule `CNc1nc(OCCCc2ccncc2)nc2c1ncn2Cc1ccc(OC)c(OC2CCCC2)c1` [compound 72] yielded a melting point of 138 to 140 °C. Moreover, the IC50 in data set [1] came out at 0.75 nM. On to `COc1ccc(Cn2c(C)nc3cnc(NCc4ccc(OCC(F)(F)F)nc4)nc32)cc1OC1CCCC1` [compound 77], for which the melting point lay in the range of 125 to 127 °C. For the same molecule, the IC50 in data set [1] came out at 0.83 nM. For `COc1ccc(Cn2cnc3c(N(C)C)nc(OCCCc4ccncc4)nc32)cc1OC1CCCC1` [compound 82], in that order: 78 to 80 °C and 0.82 nM. The corresponding values for `CCNc1nc(OCCCc2ccncc2)nc2c1ncn2Cc1ccc(OC)c(OC2CCCC2)c1` [compound 83] are 127 to 128 °C and 0.69 nM. The corresponding values for `COc1ccc(Cn2cnc3c(C)nc(NCc4ccncc4)nc32)cc1OC1CCCC1` [compound 84] are 137 to 138 °C and 1.9 nM.

Regarding `COc1ccc(Cn2cnc3c(N(C)C)nc(OCc4ccoc4)nc32)cc1OC1CCCC1` [compound 88], the melting point fell in the range of 92 to 93 °C. Also, in data set [1], the IC50 is 0.2 nM. The corresponding values for `CCCNc1nc(OCCCc2ccncc2)nc2c1ncn2Cc1ccc(OC)c(OC2CCCC2)c1` [compound 93] are 130 to 131 °C and 0.44 nM. As to `COc1ccc(Cn2c(C)nc3c(C)nc(OCc4ccncc4)nc32)cc1OC1CCCC1` [compound 95], the melting point lay in the range of 125 to 126 °C. Further, in data set [1], the IC50 was 1.7 nM. Turning to `CCNc1nc(OCc2cccnn2)nc2c1ncn2Cc1ccc(OC)c(OC2CCCC2)c1` [compound 96, 9-[(3-cyclopentyloxy-4-methoxy)benzyl]-6-ethylamino-2-[(3-pyridazinyl)methyloxy]purine], the melting point was 121 to 122 °C. In addition, the IC50 in data set [1] came to 3.8 nM. The corresponding values for `COc1ccc(Cn2c(C)nc3c(C)nc(OCc4cc[n+]([O-])cc4)nc32)cc1OC1CCCC1` [compound 102] are 157 to 158 °C and 15 nM. For `COc1ccc(Cn2cnc3c(N(C)C)nc(NCc4cccnc4)nc32)cc1OC1CCCC1` [compound 104], in that order: 112 to 114 °C and 1.1 nM. For `COc1ccc(Cn2c(C)nc3c(C)nc(OCc4cc(C)nn4C)nc32)cc1OC1CCCC1` [compound 112], in that order: 112 to 123 °C and 0.22 nM. Molecule `COc1ccc(Cn2c(C)nc3c(C)nc(NCc4cccnn4)nc32)cc1OC1CCCC1` [compound 113] displayed a melting point of 164 to 166 °C. Moreover, the IC50 in data set [1] is 24 nM. For `COc1ccc(Cn2c(C)nc3c(C)nc(SCc4cccnc4)nc32)cc1OC1CCCC1` [compound 119], in that order: 116 to 117 °C and 0.64 nM. As for `CCNc1nc(OCCCc2cc[n+]([O-])cc2)nc2c1ncn2Cc1ccc(OC)c(OC2CCCC2)c1` [compound 122], the melting point was in the range of 85 to 88 °C. Besides, in data set [1], the IC50 was found to be 15 nM. `CCNc1nc(Cl)nc2c1ncn2Cc1ccc(OC)c(OC2CCCC2)c1` [compound 134] showed a melting point of 129 to 131 °C. In data set [1], the concentration for half-maximal inhibition (IC50) worked out at 41 nM. `COc1ccc(Cn2cnc3ncnc(OCc4cccnc4)c32)cc1OC1CCCC1` [compound 137] showed a melting point of 143 to 145 °C. In data set [1], the half-inhibitory concentration (IC50) is 64 nM. The corresponding values for `COc1ccc(Cn2cnc3ncnc(Oc4cccnc4)c32)cc1OC1CCCC1` [compound 139] are 134 to 135 °C and 54 nM.
